This note sets out measurements from US20250092014A1, “COMPOUNDS AND METHODS OF ACTIVATING LIPOPROTEIN LIPASE” (Metrea Biosciences, Inc., priority 2021, published 2025).

The target of this assay is T1, LPL:sGPIHBPI complex (Homo sapiens, UniProt P06858).
T1 sequence (P06858 28-475): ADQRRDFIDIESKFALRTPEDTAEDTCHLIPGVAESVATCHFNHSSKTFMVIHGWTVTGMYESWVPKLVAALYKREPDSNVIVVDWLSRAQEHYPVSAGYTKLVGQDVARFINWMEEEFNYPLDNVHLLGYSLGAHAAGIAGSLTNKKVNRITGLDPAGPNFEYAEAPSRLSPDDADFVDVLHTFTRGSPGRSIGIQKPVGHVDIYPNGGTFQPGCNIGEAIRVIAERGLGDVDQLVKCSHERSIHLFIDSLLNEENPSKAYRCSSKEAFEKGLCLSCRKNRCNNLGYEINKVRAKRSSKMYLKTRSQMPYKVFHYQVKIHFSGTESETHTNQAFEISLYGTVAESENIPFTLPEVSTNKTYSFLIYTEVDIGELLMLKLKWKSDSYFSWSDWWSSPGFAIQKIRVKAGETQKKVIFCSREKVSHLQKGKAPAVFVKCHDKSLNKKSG
T1 sequence (Q8IV16 21-151 partner limits assumed): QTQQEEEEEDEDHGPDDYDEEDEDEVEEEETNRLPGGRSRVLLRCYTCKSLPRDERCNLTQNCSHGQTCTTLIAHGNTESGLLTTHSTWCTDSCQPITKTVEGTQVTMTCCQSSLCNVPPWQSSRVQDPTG
As to the kind of experiment: VLDL assay (LPL:sGPIHBP1 pre-incubated with ANGPTL4, VLDL substrate, Amplex Red readout). The following applies: read-out: VLDL qAC50. It is filed as biochemical. On the procedure: The assay was performed in black I536-well plates using purified proteins. To identify compounds that stimulate LPL activity either by directly activating LPL or by inhibiting the antagonist ANGPTL4, the LPL:sGPIHBPI complex was pre-incubated with ANGPTL4 to decrease LPL activity by 80%. After a 60 min pre-incubation, the coupled enzyme system supplemented with Amplex Red reagent was added. The enzymatic reaction was started by adding the VLDL substrate. 120 min after VLDL addition, the reaction was stopped using SDS and the fluorescence intensity was measured.
40 or 45 nl of compound solution in 100% DMSO were placed in test plate. Then LPL:sGPIHBPI was added to all wells (diluted in assay buffer to 80 nM; 1 μl/well). This was followed by an addition of ANGPTL4 to compounds and neutral controls (diluted in assay buffer to 84 nM; 1 μl/well). The assay buffer was added to stimulator control (1 μl/well). Then the plates were centrifuged and pre-incubated 60 min at RT. A NEFA (1:2 diluted in PBS) supplemented with Amplex Red (40 μM was further added to all wells (1 μl/well). The reaction was then started by adding substrate to all wells (diluted in VLDL buffer to 16 Vg/ml, 1 μl/well). The plates were further centrifuged (800 rpm for 1 my) and incubated 120 m at RT (=reaction time). The reaction was then by adding SDS to all wells (diluted in water to 2.5%, 2 μl/well) and further incubated 30 mi at RT. The fluorescence intensity (ex 540 nm/em 590 nm) was measured on a Pherastar (BMG) using 20 flashes.
Take `O=C(O)Cc1cc(F)ccc1NC(=O)c1ccc(N2CCCOCC2)c(NC(=O)c2nn(CC(F)(F)F)c3ccccc23)c1` [Example 63]: the EC50 came out at 10000 nM. In the case of `CC1CCN(c2ccc(C(=O)Nc3ccc(F)cc3CC(=O)O)cc2NC(=O)c2nn(CC(F)(F)F)c3ccccc23)CC1` [Example 64], the EC50 came out at 1200 nM.

As for `CC1CCCCN1c1ccc(C(=O)Nc2ccc(F)cc2CC(=O)O)cc1NC(=O)c1nn(CC(F)(F)F)c2ccccc12` (centres unmarked) [Example 67], the EC50 worked out at 2500 nM. With `CCC1CCCCN1c1ccc(C(=O)Nc2ccc(F)cc2CC(=O)O)cc1NC(=O)c1nn(CC(F)(F)F)c2ccccc12` (centres unmarked) [Example 72], the EC50 worked out at 2700 nM. With `CC1CCCN(c2ccc(C(=O)Nc3ccc(F)cc3CC(=O)O)cc2NC(=O)c2nn(CC(F)(F)F)c3ccccc23)C1` (centres unmarked) [Example 73] the figure was 2200 nM.
